Test results as given in patent US20100003301A1, “Bone Defect Filler, Release-Controlled Carrier, And Their Production Methods” (The University of Tokyo, priority 2006, published 2010).

Assay: Viscosity measurement of blocking agents (LVDV digital viscometer)
Format: physicochemical
Conditions: viscosity could not be measured
Description: A Z printer 406 made by Z corporation was used to produce a bone filling material. “LVDV” which is a digital viscometer made by Brookfield Co., Ltd. was used to measure viscosity. A UL (ultra low viscosity) adapter was used when the viscosity was measured. Bending strength was measured by a rheometer made by Sun Science Co., Ltd.
Viscosity of blocking agents were measured by “LVDV” which is a digital viscometer made by Brookfield Co., Ltd. The results are shown in Table 2.

**Q.** With `NC(=O)CC[C@H](N)C(=O)O` [L-glutamine] as the compound, how does the dissolution in water read?
**A.** cannot be dissolved in water
